In the supplement of paper PMC10307832:

Experiments:
Assay in all cases: relative viability (nuclei count vs DMSO), 5 days (fraction); higher = more cells survive
[1] = compound: CC1=C(N=C(N=C1N)[C@H](CC(=O)N)NC[C@@H](C(=O)N)N)C(=O)N[C@@H]([C@H](C2=CN=CN2)OC3C(C(C(C(O3)CO)O)O)OC4C(C(C(C(O4)CO)O)OC(=O)N)O)C(=O)N[C@H](C)[C@H]([C@H](C)C(=O)N[C@@H]([C@@H](C)O)C(=O)NCCC5=NC(=CS5)C6=NC(=CS6)C(=O)NCCC[S+](C)C)O [Bleomycin] + COc1cc2c(Oc3ccc(NC(=O)C4(C(=O)Nc5ccc(F)cc5)CC4)cc3F)ccnc2cc1OCCCN1CCOCC1 [Foretinib] (partner 0.25 µM); conditions: main component drawn
How it was run: (§1)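 Values are medians from duplicate plates. Each reflects relative viability, defined as the nuclei count of treated wells over that of vehicle wells. Lung cancer cell lines in 1536-well plates were pin-tool dosed one day after seeding with one drug alone or with a fixed anchor-drug dose plus five library-drug doses (not always all listed) in √10 steps, then fixed, stained and imaged at 4× after 5 days.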

[2] = compound: CC1=C(N=C(N=C1N)[C@H](CC(=O)N)NC[C@@H](C(=O)N)N)C(=O)N[C@@H]([C@H](C2=CN=CN2)OC3C(C(C(C(O3)CO)O)O)OC4C(C(C(C(O4)CO)O)OC(=O)N)O)C(=O)N[C@H](C)[C@H]([C@H](C)C(=O)N[C@@H]([C@@H](C)O)C(=O)NCCC5=NC(=CS5)C6=NC(=CS6)C(=O)NCCC[S+](C)C)O [Bleomycin] + O=C(CCCCCCC(=O)Nc1ccccc1)NO [Vorinostat] (partner 1 µM); conditions: main component drawn
How it was run: as §1

[3] = compound: COc1cc([C@@H]2c3cc4c(cc3[C@@H](O[C@@H]3O[C@@H]5CO[C@@H](C)O[C@H]5[C@H](O)[C@H]3O)[C@H]3COC(=O)[C@H]23)OCO4)cc(OC)c1O [Etoposide] + CC(=O)Nc1cccc(-n2c(=O)n(C3CC3)c(=O)c3c(Nc4ccc(I)cc4F)n(C)c(=O)c(C)c32)c1 [Trametinib] (partner 0.02 µM)
How it was run: as §1

[4] = compound: COc1cc([C@@H]2c3cc4c(cc3[C@@H](O[C@@H]3O[C@@H]5CO[C@@H](C)O[C@H]5[C@H](O)[C@H]3O)[C@H]3COC(=O)[C@H]23)OCO4)cc(OC)c1O [Etoposide] + CC1(C)CCC(c2ccc(Cl)cc2)=C(CN2CCN(c3ccc(C(=O)NS(=O)(=O)c4ccc(N[C@H](CCN5CCOCC5)CSc5ccccc5)c(S(=O)(=O)C(F)(F)F)c4)cc3)CC2)C1 [Navitoclax] (partner 0.5 µM)
How it was run: as §1

Cell Line	relative viability ([1]; first compound 0.01 µM)	relative viability ([1]; first compound 0.03162 µM)	relative viability ([1]; first compound 0.1 µM)	relative viability ([1]; first compound 0.3162 µM)	relative viability ([1]; first compound 1 µM)	relative viability ([2]; first compound 0.01 µM)	relative viability ([2]; first compound 0.03162 µM)	relative viability ([2]; first compound 0.1 µM)	relative viability ([2]; first compound 0.3162 µM)	relative viability ([2]; first compound 1 µM)	relative viability ([3]; first compound 0.01 µM)	relative viability ([3]; first compound 0.03162 µM)	relative viability ([3]; first compound 0.1 µM)	relative viability ([3]; first compound 0.3162 µM)	relative viability ([3]; first compound 1 µM)	relative viability ([4]; first compound 0.01 µM)	relative viability ([4]; first compound 0.03162 µM)	relative viability ([4]; first compound 0.1 µM)	relative viability ([4]; first compound 0.3162 µM)	relative viability ([4]; first compound 1 µM)
NCI-H1355	0.931	0.971	0.937	0.52	0.348	0.599	0.627	0.676	0.325	0.207	0.396	0.478	0.27	0.384	0.256	0.881	1.17	0.479	0.684	0.323
NCI-H1395	0.886	0.932	0.827	0.672	0.497	0.574	0.656	0.403	0.35	0.359	0.962	1.15	0.839	1.01	0.808	1.21	1.15	0.893	0.988	0.682
NCI-H1437	1.18	1.12	0.959	0.695	0.619	0.712	0.758	0.733	0.458	0.413	0.417	0.551	0.361	0.412	0.298	1.11	1.01	1.01	0.524	0.296
NCI-H1650	0.718	0.393	0.254	0.188	0.181	0.36	0.241	0.22	0.146	0.169	0.459	0.541	0.458	0.257	0.143	1.25	1.19	0.885	0.353	0.309
NCI-H1651	0.716	0.499	0.496	0.31	0.213	0.519	0.505	0.392	0.356	0.152	0.774	0.783	0.558	0.362	0.165	0.866	0.881	0.808	0.242	0.154
NCI-H1666	0.763	0.675	0.533	0.44	0.398	0.786	0.926	0.885	0.652	0.613	0.818	0.89	0.809	0.526	0.508	0.788	0.875	0.549	0.353	0.263
NCI-H1734	0.773	0.564	0.631	0.344	0.228	0.612	0.623	0.472	0.231	0.15	0.655	0.74	0.499	0.461	0.452	0.761	0.9	0.665	0.598	0.266
NCI-H1755	0.838	0.976	0.948	0.638	0.592	0.606	0.736	0.714	0.521	0.636	0.751	0.787	0.692	0.723	0.546	0.917	1.03	1.07	0.939	0.882
NCI-H1793	0.717	0.724	0.734	0.269	0.218	0.714	0.647	0.525	0.215	0.141		0.484	0.357	0.352	0.293	0.382	0.564		0.387	0.324
NCI-H1915	0.929	0.885	0.763	0.431	0.257	0.377	0.383	0.291	0.162	0.116	0.275	0.343	0.253	0.262	0.282	0.826	0.814	0.815	0.725	0.621
NCI-H1944	0.55	0.391	0.384	0.225	0.203	0.284	0.244	0.265	0.154	0.152	0.435	0.46	0.297	0.255	0.175	1.11	1	0.63	0.593	0.3
NCI-H1975	0.708	0.582	0.434	0.191	0.198	0.482	0.514	0.386	0.215	0.162	0.303	0.425	0.284	0.268	0.236	1.09	1.33	1.06	0.701	0.468
NCI-H1993	0.809	0.667	0.796	0.644	0.479	0.669	0.585	0.864	0.303	0.386		0.619	0.441	0.481	0.444	0.921	1.08	0.856	0.758	0.533
NCI-H2009	0.775	1.29	1.25	0.969	0.639	0.662	0.739	0.854	0.541	0.36	0.239	0.286	0.168	0.246	0.216	1.13	1.08	1.21	0.771	0.496
NCI-H2023	0.717	0.641	0.522	0.245	0.162	0.409	0.385	0.338	0.0999	0.114	0.448	0.647	0.559	0.452	0.186	0.99	0.964	0.929	0.423	0.347
